Measured values as given in patent US8012950B2, “Method to diagnose and treat degenerative joint disease” (Wisconsin Alumni Research Foundation, priority 2003, dated 2011).

Experiments:
[1] = molecular target: T1, recombinant human cathepsin K (Homo sapiens, UniProt P43235); assay: Cathepsin K inhibition assay; assay type: biochemical
T1 sequence (P43235 115-329): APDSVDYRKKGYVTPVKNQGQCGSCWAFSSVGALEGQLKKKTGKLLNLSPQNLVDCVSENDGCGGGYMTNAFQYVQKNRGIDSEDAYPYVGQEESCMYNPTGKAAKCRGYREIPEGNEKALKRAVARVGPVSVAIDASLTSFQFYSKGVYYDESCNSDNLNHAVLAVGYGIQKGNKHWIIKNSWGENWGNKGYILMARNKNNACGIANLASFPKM
Description: Cathepsin K Inhibition Assay: The cathepsin K inhibition assay was modified from a previously described protocol (Votta et al., 1997). Doxycycline, tetracycline and minocycline were dissolved in 0.1 M Tris/0.15M NaCl buffer, pH 7.4. COL-3 was dissolved in 100% ethanol. NPI-3469 was dissolved in dimethylsulphoxide. Ten microliters of doxycycline, tetracycline, minocycline, COL-3, and NPI-3469 were dissolved in buffer and an equal volume of 0.125 μM rh-human cathepsin K standard dissolved in 100 mM sodium acetate buffer, pH 5.5 were mixed in a 96-well microplate and incubated at approximately 25° C. (room temperature) for 15 minutes. Concentrations of the candidate inhibiting compound in the initial mixture were prepared at 10^-7 to 10^-3M. Then 180 μl of an MCA substrate buffer containing 100 mM sodium acetate buffer pH 5.5, 2.5 mM dithiothreitol, 2.5 mM EDTA, and 5 μ[…] substrate (Peptides International, Louisville, KY) was added to the mixture. The microplate was incubated for 60 minutes at approximately 25° C. The fluorescence of each well was then determined using a fluorescent microplate reader set at 360 nm excitation/460 nm emission. Data Analysis: The residual collagenolytic enzyme activity as a percentage of the control was calculated for each concentration of each inhibiting compound. All dilutions of each inhibiting compound were assayed in duplicate and a mean value was calculated for each well.

[2] = molecular target: T2, recombinant human MMP-13 (collagenase 3) (Homo sapiens, UniProt P45452); assay: Matrix metalloproteinase-13 inhibition assay; assay type: biochemical; conditions: at 1 mM concentrations
T2 construct: purchased Chondrex, Inc., Redmond, Wash; Cat. No. 3003
Description: Matrix Metalloproteinase-13 Inhibition Assay: The MMP-13 (collagenase 3) inhibition assay used a commercially available kit (Chondrex, Inc., Redmond, Wash., Cat. No. 3003) The recombinant human MMP-13 (collagenase 3) was activated by adding 5 μl of a 10 μg/ml solution of recombinant human MMP-13, 90 μl of sample dilution and reaction buffer (Solution B), and 5 μl of p-aminophenylmercuric acetate to each well of a microplate. The microplate was then incubated for 60 minutes at 35° C. Ten microliters of proteinase inhibitor was then added to each well to neutralize non-collagenolytic proteases in the sample solutions. Twenty five microliters of doxycycline, tetracycline, minocycline, COL-3, NPI-3469 (dissolved in buffer as previously described) and 25 μl of solution B were added to each well. Concentrations of the candidate inhibiting compounds in the initial mixture were prepared at 10^−7 to 10^−3 M using solution B. After the microplate was incubated at approximately 25° C. for 30 minutes, 10 μl of stop solution was added to each well and the fluorescence of each well was then determined using a fluorescent microplate reader set at 360 nm excitation/460nm emission. Data Analysis: The residual collagenolytic enzyme activity as a percentage of the control was calculated for each concentration of each inhibiting compound. All dilutions of each inhibiting compound were assayed in duplicate and a mean value was calculated for each well.

[3] = Pharmacokinetic study of oral NPI 3469 in the dog; assay type: in vivo; conditions: 4 beagles, single oral dose 1 mg/kg
Description: Pharmacokinetics of oral NPI 3469 (NAEJA Pharmaceuticals, Edmonton, Alberta, Canada) in the dog. We have conducted a pharmokinetic study in 4 beagles using a single oral dose of NPI 3469 given at 1 mg/kg and pharmacokinetic parameters have been determined.

inhibition of cathepsin K ([1]; at 1 μm) [%] | inhibition of cathepsin K ([1]; at 10 μm) [%] | inhibition of matrix metalloproteinase-13 [2] [%] | inhibition of matrix metalloproteinase-13 (in words) [2] | SMILES | adverse effects during the treatment period [3]
25 | 56 | 57 |  | NC(=O)C1=C(O)CC2CC3Cc4cccc(O)c4C(=O)C3=C(O)C2(O)C1=O (stereo not shown) [COL-3, 4-dedimethylaminosancycline] | 
47 | 75 |  | did not inhibit | CC(C)C[C@H](NC(=O)OCc1ccccc1)C(=O)NC1=CNC2(CCCC2)NC1=O [NPI-3469, 5-(carbobenzoxy-L-leucyl)amino-2,2-tetramethylene-2,3-dihydro-1H-pyrimidin-4-one] | No adverse effects

Second part, the molecule before the results:

SMILES | inhibition of cathepsin K ([1]; at 1 μm) [%] | inhibition of cathepsin K ([1]; at 10 μm) [%] | inhibition of matrix metalloproteinase-13 [2] [%] | inhibition of matrix metalloproteinase-13 (in words) [2] | adverse effects during the treatment period [3]
C[C@H]1c2cccc(O)c2C(=O)C2=C(O)[C@]3(O)C(=O)C(C(N)=O)=C(O)[C@@H](N(C)C)[C@@H]3[C@@H](O)[C@@H]21 [doxycycline] |  |  |  | did not inhibit | 
CN(C)c1ccc(O)c2c1C[C@H]1C[C@H]3[C@H](N(C)C)C(O)=C(C(N)=O)C(=O)[C@@]3(O)C(O)=C1C2=O [minocycline] |  |  | 85 |  | 
CN(C)[C@@H]1C(O)=C(C(N)=O)C(=O)[C@@]2(O)C(O)=C3C(=O)c4c(O)cccc4[C@@](C)(O)[C@H]3C[C@@H]12 [tetracycline] |  |  | 49 |  | 
